Counter-ions that a name gives are not always drawn.
How the values were obtained:
human CYP17 = biological target: T1, human CYP17 (Homo sapiens, UniProt P05093); assay: Percent inhibition of CYP17 (membrane fraction of E. coli pJL17/OR); assay type: biochemical; conditions: E. coli which expresses human CYP17, 5 mg/ml protein, progesterone substrate 2.5 μM, inhibitor 2.5 μM; for inhibition at 2.5 µM: read-out: % Inhibition human CYP17
T1 construct: made in house; host or cells: E. coli pJL17/OR (membrane fraction)
T1 sequence (P05093 1-508): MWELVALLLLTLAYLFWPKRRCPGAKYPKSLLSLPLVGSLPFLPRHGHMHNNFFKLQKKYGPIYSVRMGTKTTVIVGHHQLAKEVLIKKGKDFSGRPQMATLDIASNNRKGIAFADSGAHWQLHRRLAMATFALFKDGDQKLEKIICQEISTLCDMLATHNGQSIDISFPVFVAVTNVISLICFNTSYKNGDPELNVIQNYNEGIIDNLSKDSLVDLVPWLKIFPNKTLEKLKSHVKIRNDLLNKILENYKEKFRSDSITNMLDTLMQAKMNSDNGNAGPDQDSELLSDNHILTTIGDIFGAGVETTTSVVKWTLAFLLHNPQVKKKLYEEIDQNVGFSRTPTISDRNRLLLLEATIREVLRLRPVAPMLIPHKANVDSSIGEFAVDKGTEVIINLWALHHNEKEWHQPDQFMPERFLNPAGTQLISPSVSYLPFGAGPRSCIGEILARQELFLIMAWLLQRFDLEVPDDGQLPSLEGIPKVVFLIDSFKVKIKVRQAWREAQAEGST
How it was run: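 Membranes were isolated from E. coli pJL17/OR, which coexpresses human CYP17 with rat NADPH-P450-reductase, by lysozyme treatment, sonication and centrifugation at 50,000 g, then stored at −70° C. Reactions were started with diluted membrane suspension (0.8 to 1 mg of protein per ml), incubated at 37° C for 30 min, extracted with EtOAc and analyzed by HPLC. Inhibition was calculated from reduced substrate conversion versus DMSO controls.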

human CYP11B2 = biological target: T2, human CYP11B2 (Homo sapiens, UniProt P19099); assay: V79 MZh 11B2 cells inhibition test; assay type: cell-based; set-up: expressed in transfected cells; host or cells: V79 MZh11B2 (Chinese hamster lung fibroblasts); conditions: for IC50: hamster fibroblasts which express human CYP11B2, deoxycorticosterone substrate 100 nM, read-out: IC50 V79 11B2 hCYP11B2
T2 sequence (P19099 25-503): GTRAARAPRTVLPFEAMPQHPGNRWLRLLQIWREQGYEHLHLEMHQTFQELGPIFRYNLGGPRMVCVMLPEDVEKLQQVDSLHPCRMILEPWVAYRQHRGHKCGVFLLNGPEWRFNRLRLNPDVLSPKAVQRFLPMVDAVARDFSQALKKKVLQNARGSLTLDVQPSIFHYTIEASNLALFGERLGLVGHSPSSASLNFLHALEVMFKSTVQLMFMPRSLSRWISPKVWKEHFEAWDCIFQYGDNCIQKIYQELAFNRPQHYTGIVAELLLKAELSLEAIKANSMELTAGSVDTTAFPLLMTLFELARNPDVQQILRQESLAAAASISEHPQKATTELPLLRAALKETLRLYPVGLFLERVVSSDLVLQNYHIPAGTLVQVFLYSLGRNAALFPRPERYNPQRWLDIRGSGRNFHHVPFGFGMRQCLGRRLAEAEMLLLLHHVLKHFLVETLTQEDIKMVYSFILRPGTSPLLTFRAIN
Method: Both cell lines were cultured in DMEM^+ containing […] and the antibiotics penicillin and streptomycin (10%) for protection from bacterial contamination. The cells were passaged every 2-3 days after treatment with trypsin/EDTA because the doubling rate was 1-2 days depending on the number of cells. […] When there was further need, freshly thawed cells were employed.
Thereafter, the plate was stored at 37° C. and […] in a CO2 incubator. The V79 MZh 11B1 cells were incubated for 120 min, and the V79 MZh 11B2 cells were incubated for 40 min. Controls without inhibitor were treated in the same way. The enzyme reactions were quenched by extracting the supernatant with 500 μl of EtOAc. The samples were centrifuged (10,000 g, 2 min), the solvent was removed and evaporated.
For V79 MZh11B2, the conversion rate was obtained in accordance with equation 3: […]
It was calculated by determining the percent inhibition for at least 3 different inhibitor concentrations, which must all be in the linear range of the sigmoidal IC50 curve (log C/% inhibition).
The calculation was effected by linear regression. The values determined were used only if they formed a straight line with a reliability of […].
The plate was developed twice with the mobile solvent chloroform:methanol:water (300:20:1). Unlabeled 11-deoxycorticosterone and corticosterone were applied as a reference for the CYP11B1 reaction. For the CYP11B2 reaction, 11-deoxycorticosterone, corticosterone, 18-hydroxycorticosterone and aldosterone were used as references. The detection of the unlabeled references was effected at 260 nm. Subsequently, imaging plates (BAS MS2340, for ^14C samples, Raytest, Straubenhardt, Germany) were exposed to the HPTLC plates for 48 h. The imaging plates were scanned with the phosphoimager system Fuji FLA 3000 (Raytest, Straubenhardt, Germany), and the steroids were quantified.

Compound	% Inhibition human CYP17 (human CYP17) [%]	IC50 (human CYP11B2) [µM]	Selectivity factor IC50 (CYP11B1)/IC50 (CYP11B2) (human CYP11B2; V79 cells expressing human CYP11B1 or CYP11B2)	inhibition at 2.5 µM (human CYP17) [%]
5-[(E)-(6-Chloro-3,4-dihydronaphth-1(2H)-ylidene)methyl]-1H-imidazolium chloride [Compound 46a]	24	0.0473		
5-[(Z)-3,4-Dihydronaphth-1(2H)-ylidenemethyl]-1H-imidazolium oxalate [Compound 41b]	13			
5-[(Z)-(5-Bromo-2,3-dihydro-1H-indene-1-ylidene)methyl]-1H-imidazolium oxalate [Compound 49b]	15	0.0103		
5-[(Z)-(5-Chloro-2,3-dihydro-1H-indene-1-ylidene)methyl]-1H-imidazolium oxalate [Compound 48b]	26		five times	
C(=C1/CCc2ccccc21)/c1cccnc1 [Compound 1a, 3-[(E)-2,3-Dihydro-1H-indane-1-ylidenemethyl]pyridine Hydrochloride]		0.0106		14
C(=C1\CCc2ccccc21)/c1cccnc1.Cl [Compound 1b, 3-[(Z)-2,3-Dihydro-1H-indane-1-ylidenemethyl]pyridine Hydrochloride]	33	0.092		
C(=C1\CCc2ccccc21)/c1ccncc1 [Compound 2b, 4-[(Z)-2,3-Dihydro-1H-indane-1-ylidenemethyl]pyridine oxalate]		0.931		18
C(=C1/CCCc2ccccc21)/c1cccnc1.Cl [Compound 3a, 3-[(E)-3,4-Dihydronaphthalene-1(2H)-ylidenemethyl]pyridine Hydrochloride]		0.0216		9
C(=C1\CCCc2ccccc21)/c1cccnc1.Cl [Compound 3b, 3-[(Z)-3,4-Dihydronaphthalene-1(2H)-ylidenemethyl]pyridine Hydrochloride]		0.141		24
Fc1ccc2c(c1)CC/C2=C\c1cccnc1 [Compound 5a, 3-[(E)-(5-Fluoro-2,3-dihydro-1H-indane-1-ylidene)methyl]pyridine Hydrochloride]		0.0068		17
Fc1ccc2c(c1)CC/C2=C/c1cccnc1 [Compound 5b, 3-[(Z)-(5-Fluoro-2,3-dihydro-1H-indane-1-ylidene)methyl]pyridine Hydrochloride]		0.0108		16
Fc1ccc2c(c1)CC/C2=C\c1ccncc1 [Compound 6a, 4-[(E)-(5-Fluoro-2,3-dihydro-1H-indane-1-ylidene)methyl]pyridine Hydrochloride]		1.1		15
Fc1ccc2c(c1)CC/C2=C/c1ccncc1 [Compound 6b, 4-[(Z)-(5-Fluoro-2,3-dihydro-1H-indane-1-ylidene)methyl]pyridine Hydrochloride]		0.034		29
Clc1ccc2c(c1)CC/C2=C\c1cccnc1 [Compound 7a, 3-[(E)-(5-Chloro-2.3-dihydro-1H-indane-1-ylidene)methyl]pyridine Hydrochloride]		0.0262		26
Clc1ccc2c(c1)CC/C2=C/c1cccnc1 [Compound 7b, 3-[(Z)-(5-Chloro-2,3-dihydro-1H-indane-1-ylidene)methyl]pyridine Hydrochloride]		0.0727		28
Clc1ccc2c(c1)CC/C2=C\c1ccncc1 [Compound 8a, 4-[(E)-(5-Chloro-2,3-dihydro-1H-indane-1-ylidene)methyl]pyridine Hydrochloride]		1.52		18
C(=C1/CCCc2ccccc21)/c1cnc[nH]1 [Compound 41a, 5-[(E)-3,4-Dihydronaphth-1(2H)-ylidenemethyl]-1H-imidazole]				13
Cl.Clc1ccc2c(c1)CC/C2=C\c1cnc[nH]1 [Compound 48a, 5-[(E)-(5-Chloro-2,3-dihydro-1H-indene-1-ylidene)methyl]-1H-imidazolium chloride]				37
